In ChEMBL document CHEMBL5050844 (2019):

What was measured:
[1] = target: T1, E3 ubiquitin-protein ligase CBL-B (Homo sapiens, UniProt Q13191); assay: Inhibition of N-terminal Avi-tagged human CBL-B (36 to 427 residues) incubated with 30 nM Src kinase for 1.5 hrs followed by incubation with fluorescently labeled UbcH5B-Ub for 1 hr and measured by TR-FRET assay
[2] = target: T1, E3 ubiquitin-protein ligase CBL-B; assay: Inhibition of N-terminal Avi-tagged human CBL-B (36 to 427 residues) incubated with 60 nM Src kinase for 1.5 hrs followed by incubation with fluorescently labeled UbcH5B-Ub for 1 hr and measured by TR-FRET assay; assay type: single protein
[3] = target: T1, E3 ubiquitin-protein ligase CBL-B; assay: Binding affinity towards N-terminal biotinylated Avi-tagged human CBL-B (36 to 427 residues) measured by surface plasmon resonance assay
[4] = Induction of anti-CD3/CD28 antibodies-stimulated human T cell activation at 1 uM assessed fold increase in IL-2 secretion measured by ELISA assay; assay type: functional, T cell line
[5] = Induction of anti-CD3/CD28 antibodies-stimulated human T cell activation at 0.3 uM assessed fold increase in IL-2 secretion measured by ELISA assay; assay type: functional, T cell line
[6] = Induction of anti-CD3 antibodies-stimulated human T cell activation at 1 uM assessed fold increase in IL-2 secretion measured by ELISA assay; assay type: functional, T cell line; also: reference of the scale not given here
[7] = Induction of anti-CD3/CD28 antibodies-stimulated human T cell activation at 1 uM assessed fold increase in CD25 expression measured by ELISA assay; assay type: functional, T cell line
[8] = Induction of anti-CD3/CD28 antibodies-stimulated human T cell activation at 0.3 uM assessed fold increase in CD25 expression measured by ELISA assay; assay type: functional, T cell line
[9] = Induction of anti-CD3 antibodies-stimulated human T cell activation at 1 uM assessed fold increase in CD25 expression measured by ELISA assay; assay type: functional, T cell line; also: reference of the scale not given here
[10] = Induction of anti-CD3 antibodies-stimulated human CD4+ T cell activation in immunocompetent mouse assessed fold increase in CD25 expression at 135 mg/kg, po administered twice a day; assay type: functional; also: reference of the scale not given here
[11] = Induction of anti-CD3 antibodies-stimulated human CD8+ T cell activation in immunocompetent mouse assessed fold increase in CD25 expression at 90 mg/kg, po administered twice a day; assay type: functional; also: reference of the scale not given here
[12] = Induction of anti-CD3/CD28 antibodies-stimulated human T cell activation at 4 uM assessed fold increase in IL-2 secretion measured by ELISA assay; assay type: functional, T cell line
[13] = Induction of anti-CD3 antibodies-stimulated human T cell activation at 8 uM assessed fold increase in IL-2 secretion measured by ELISA assay; assay type: functional, T cell line; also: reference of the scale not given here
[14] = Induction of anti-CD3/CD28 antibodies-stimulated human T cell activation at 4 uM assessed fold increase in CD25 expression measured by ELISA assay; assay type: functional, T cell line
[15] = Induction of anti-CD3 antibodies-stimulated human T cell activation at 8 uM assessed fold increase in CD25 expression measured by ELISA assay; assay type: functional, T cell line; also: reference of the scale not given here

T1 sequence (Q13191 whole entry, the tested form may be a part): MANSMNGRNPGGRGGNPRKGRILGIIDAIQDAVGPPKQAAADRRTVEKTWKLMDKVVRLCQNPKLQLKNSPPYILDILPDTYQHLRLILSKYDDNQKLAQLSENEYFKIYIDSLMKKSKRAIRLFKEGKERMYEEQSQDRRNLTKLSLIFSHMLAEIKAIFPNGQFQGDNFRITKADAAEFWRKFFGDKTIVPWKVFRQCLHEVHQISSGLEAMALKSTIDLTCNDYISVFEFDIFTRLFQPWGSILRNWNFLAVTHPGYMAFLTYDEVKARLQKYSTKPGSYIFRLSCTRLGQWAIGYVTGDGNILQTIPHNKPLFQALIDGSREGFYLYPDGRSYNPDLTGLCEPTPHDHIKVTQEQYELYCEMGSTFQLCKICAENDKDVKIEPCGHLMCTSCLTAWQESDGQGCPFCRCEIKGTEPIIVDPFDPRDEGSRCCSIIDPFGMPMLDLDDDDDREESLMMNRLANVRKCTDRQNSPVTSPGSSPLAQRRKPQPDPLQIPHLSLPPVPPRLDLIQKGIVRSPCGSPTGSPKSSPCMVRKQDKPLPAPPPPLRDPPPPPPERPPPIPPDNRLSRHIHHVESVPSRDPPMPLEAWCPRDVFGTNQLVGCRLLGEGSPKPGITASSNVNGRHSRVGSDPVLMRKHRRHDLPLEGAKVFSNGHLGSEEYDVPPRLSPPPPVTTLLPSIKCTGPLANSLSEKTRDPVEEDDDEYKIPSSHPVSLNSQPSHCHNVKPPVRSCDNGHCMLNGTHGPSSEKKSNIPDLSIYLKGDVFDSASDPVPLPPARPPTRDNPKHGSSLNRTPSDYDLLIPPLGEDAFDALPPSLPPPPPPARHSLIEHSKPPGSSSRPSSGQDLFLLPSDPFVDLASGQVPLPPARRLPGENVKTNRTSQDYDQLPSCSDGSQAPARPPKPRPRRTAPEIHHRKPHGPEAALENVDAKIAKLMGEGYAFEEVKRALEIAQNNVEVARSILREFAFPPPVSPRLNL

Structure (SMILES)	IC50 [1] [nM]	IC50 [2] [nM]	Kd [3] [nM]	fold change (FC) [4]	fold change (FC) [5]	fold change (FC) [6]	fold change (FC) [7]	fold change (FC) [8]	fold change (FC) [9]	fold change (FC) [10]	fold change (FC) [11]	fold change (FC) [12]	fold change (FC) [13]	fold change (FC) [14]	fold change (FC) [15]
CC(Sc1nncn1C)c1cc(CO)cc(NC(=O)c2ccc3ccccc3n2)c1 (configuration not stated)	> 10000														
CC(Sc1nncn1C)c1cccc(NC(=O)c2ccc3cccnc3c2)c1 (configuration not stated)	> 10000														
C[C@@H](c1cc2c(c(C(F)(F)F)c1)CN(c1cccc(C3(Cc4nncn4C)COC3)c1)C2=O)N1CCC(C)(F)CC1		< 100	< 100	>=7.5	>=7.5	>=0.201	>=1.76	>=1.76	>=1.001	1	1				
Cc1ccc2cc(C(=O)Nc3cccc(C(C)Sc4nncn4C)c3)cnc2c1 (configuration not stated)	> 10000														
Cc1ccc2ccc(C(=O)Nc3cccc(C(C)Sc4nncn4C)c3)nc2n1 (configuration not stated)	> 10000														
CC(Sc1nncn1C)c1cccc(NC(=O)c2cnc3ccccc3c2)c1 (configuration not stated)	≥ 3000														
Cn1cnnc1CC1(c2cccc(N3Cc4c(cc(CN5C[C@H]6C[C@H]6C5)cc4C(F)(F)F)C3=O)c2)COC1		< 100		>=7.5	>=7.5	>=0.201	1.31	1.31	>=1.001	1	1	>=7.5	>=0.201	1.51	>=1.001
CC(Sc1nncn1C)c1cccc(NC(=O)c2ccncn2)c1 (configuration not stated)	> 10000														
Cn1cnnc1CC1(c2cccc(NC(=O)c3cc(CN4CC[C@H](F)C4)cc(C4CC4)n3)c2)COC1		< 100	< 100	>=7.5	>=7.5	>=0.201	1.51	1.51	>=1.001	1.51	1				
CC(Sc1nncn1C)c1cccc(NC(=O)c2ccc3cnccc3c2)c1 (configuration not stated)	> 10000														
Cn1cnnc1[C@@H](F)C1(c2cccc(N3Cc4c(cc(CN5CCC(F)CC5)cc4C(F)(F)F)C3=O)c2)COC1		< 100	< 100	>=7.5	5	>=0.201	1.51	1.51	>=1.001	2.01	1				
Cn1cnnc1[C@H](F)C1(c2cccc(N3Cc4c(cc(CN5CCC(F)CC5)cc4C(F)(F)F)C3=O)c2)COC1		< 100	< 100	>=7.5	>=7.5	>=0.201	>=1.76	>=1.76	>=1.001	1.51	1				
C[C@@H](c1cc2c(c(C(F)(F)F)c1)CN(c1cccc(C3(Cc4nncn4C)COC3)c1)C2=O)N1CC2CC2C1 (some centres not stated)		< 100		>=7.5	>=7.5	>=0.201	1.31	1.31	>=1.001	1	1				
Cn1cnnc1CC1(c2cccc(N3Cc4c(cc(CN5CCC[C@H](F)C5)cc4C(F)(F)F)C3=O)c2)COC1		< 100		>=7.5	>=7.5	>=0.201	1.31	1.31	>=1.001	1	1				
CN1CC2CCC(C1)N2c1cc2c(c(C(F)(F)F)c1)CN(c1cccc(C3(Cc4nncn4C)COC3)c1)C2=O		< 100		>=7.5	>=7.5	>=0.201	1.31	1.31	>=1.001	1	1				
